From patent US11369618B2, “Compounds, compositions and methods for prevention and/or treatment of cancer” (THE TRUSTEES OF THE UNIVERSITY OF PENNSYLVANIA, priority 2016, dated 2022)
“Also recorded” adds a separate entry of the source.

Tests used:
[1] = tested on: pCREB and c-Myc in NSCLC line LLC1; experiment: Western blot of LLC1 cells treated with G-1; assay type: cell-based; conditions: LLC1, 500 nM
Procedure: FIGS. 18A-18G illustrate the finding that GPER signaling reduces NSCLC cell proliferation in vitro and in vivo and has combinatorial effects with αPD-1 immunotherapy. FIG. 18A: Western blot for pCREB of LLC1 cells treated with 500 nM G-1 for 30 minutes. FIG. 18B: Proliferation assay of LLC1 treated with 500 nM G-1 for 6 days. FIG. 18C: Western blot for c-Myc of LLC1 cells treated with 500 nM G-1 for 6 days. FIG. 18D: Western blot for c-Myc of LLC1 cells treated with 500 nM G-1 over a time-course. […] FIG. 18F: Tumor volumes over time of LLC1 tumor bearing mice treated with vehicle or G-1, as well as αPD-1 antibody or isotype antibody control (2A3). FIG. 18G: Survival curve of mice treated with vehicle or G-1, as well as αPD-1 antibody or isotype antibody control (2A3).
Reproductive history influences lung cancer as well. Women have a decreasing risk of lung cancer correlated with the number children they have had.

[2] = tested on: Mouse (B16) and human (WM46) melanoma cell lines; experiment: tumor formation in mice from melanoma cells pretreated in vitro; assay type: in vivo; conditions: melanoma cells pretreated in vitro, equal numbers injected into mice
Procedure: FIG. 11A: Long-term melanin assay in which normal human melanocytes were transiently treated with progesterone (P4), or estrogen (E2). Subsets of these groups (Red) were treated with an additional transient pulse of P4 at Day 27. Error bars equal the standard deviation of the samples. FIG. 11B: Western blot of melanocyte differentiation markers after a transient, 4-day treatment with either vehicle or estrogen, followed by an 8 day withdraw period. FIG. 11C: Experimental timeline of estrogen or GPER agonist (G-1) pre-treatment of mouse and human melanoma cells, n=5 per group. FIG. 11D: Relative tumor weights of mouse and human melanomas pre-treated with estrogen, * denotes significance by the Mann-Whitney test. FIG. 11E: Relative tumor weights of mouse and human melanomas pre-treated with G-1, * denotes significance by the Mann-Whitney test.
Mouse (B16) and human (WM46) cell lines were pretreated with estrogen, G-1, or vehicle in vitro for one week then injected in equal numbers in to the left (vehicle-treated) or right (E2-treated) flank of mice, inducing tumor formation (N=5 mice per group) (FIG. 5). 14-16 days later, mice were imaged and tumors were harvested and weighed.
To test whether transient GPER signaling induces a persistent differentiation state in melanoma cells that affects subsequent tumor growth in vivo, melanoma cells were treated with estrogen, G-1, or vehicle in vitro, and subsequently injected equal numbers of treated cells into host mice (FIG. 11C).

[3] = tested on: mouse and human melanoma cell lines (B16F10, WM46, WM51, WM3702); experiment: proliferation assay of mouse and human melanoma cell lines in vitro; assay type: cell-based; conditions: estrogen 25 nM E2, G-1 100 nM, vs delivery vehicle
Source text: FIGS. 4A-4F illustrate the finding that GPER signaling slows proliferation and drives differentiation in mouse and human melanoma. FIG. 4A: 5 day proliferation assay of B16F10, WM46 (BRAF^V600E), WM51 (BRAF^V600E), and WM3702 (NRAS^Q61L) cells treated with estrogen (E2), * denotes significance by a two-tailed T-test, n=3 per group. FIG. 4B: 5 day melanin assay of B16F10, WM46 (BRAF^V600E), WM51 (BRAF^V600E), and WM3702 (NRAS^Q61L) cells treated with E2, * denotes significance by a two-tailed T-test, n=3 per group. FIG. 4C: 5 day proliferation assay of B16F10, WM46 (BRAF^V600E), WM51 (BRAF^V600E) and WM3702 (NRAS^Q61L) cells treated with GPER agonist (G-1), * denotes significance by a two-tailed T-test, n=3 per group. FIG. 4D: 5 day melanin assay of B16F10, WM46 (BRAF^V600E), WM51 (BRAF^V600E), and WM3702 (NRAS^Q61L) cells treated with G-1, * denotes significance by a two-tailed T-test, n=3 per group. FIG. 4E: 3 day proliferation assay of B16F10 cells treated with a dose response of G-1, * denotes significance One-way ANOVA with Tukey's multiple comparison test, n=5 per group. FIG. 4F: Western blot of B16F10 cells treated for 16 hours with a saturating dose response of G-1. […]
Tumor cell proliferation slowed in both mouse and human melanoma cells following treatment with estrogen or G-1, a specific GPER agonist. […] Cell proliferation and differentiation (melanin production) were measured.

[4] = tested on: mouse melanoma cell line B16F10; experiment: in vivo treatment with G-1 of B16F10 melanoma (FIG. 6); conditions: B16F10, FIG. 6
B16F10 melanoma cells = experiment: melanoma cells treated with G-1, HDACi, or in combination (Western blot, B16F10 proliferation assay); assay type: cell-based
Source text: FIG. 16B: Western blot of p-RB, c-Myc, and H3K56ac in melanoma cells after treatment with G-1, HDACi, or in combination. FIG. 16C: Proliferation assay of B16F10 melanoma cells after treatment with G-1, HDACi, or in combination.
Histone acetyl marks are removed by several histone deacetylases (HDACs), which are aberrantly regulated in many cancers. Although HDAC inhibitors are approved as anticancer agents for cutaneous lymphoma, myeloma, and […], their utility in melanoma is unclear. […] HDAC efficacy may have been limited by the fact that trials were conducted without a differentiation driver to promote formation of acetylation marks on histones or other critical oncoproteins (such as c-Myc) that would then be stabilized by the HDACi. Without wishing to be limited by any theory, the anticancer effects of HDAC inhibitors can be potentiated by combination drug regimens that also promote histone acetylation at functionally critical sites. HDACi and GPER agonists independently promote melanoma cell differentiation, and also cooperate to potentiate the activity of each other (FIGS. 16B-16C).

PDAC tumors = experiment: PDAC tumor bearing mice treated with G-1; assay type: in vivo, mouse; conditions: tumors grown 18 days, dosing on 3 consecutive days, follow-up 4 days; 2 independent PDAC cell lines
[5] = tested on: pCREB and c-Myc in NSCLC line TC-1; experiment: Western blot of TC-1 cells treated with G-1; assay type: cell-based; conditions: TC-1, 500 nM, 1 hour

## CC(=O)c1ccc2c(c1)[C@@H]1C=CC[C@@H]1[C@H](c1cc3c(cc1Br)OCO3)N2 (relative stereo) [Compound G-1, rel-1-[4-(6-bromo-1,3-benzodioxol-5-yl)-3aR,4S,5,9bS-tetrahydro-3H-cyclopenta[c]quinolin-8-yl]-ethanone]
[1]; 30 minutes
  pCREB levels: elevated pCREB levels
[1]; long-term treatment (6 days)
  c-Myc protein: reduction of c-Myc protein
[2]
  tumor growth / tumor size from pretreated cells: formed significantly smaller tumors; also recorded: markedly reduced subsequent tumor size
[3]
  melanoma cell proliferation: slowed melanoma cell proliferation
[4]
  tumor growth in vivo: inhibited tumor growth in vivo; also recorded: inhibits mouse melanoma cell line B16F10 growth in vivo
B16F10 melanoma cells
  combined effect of G-1 and HDACi in melanoma cells: synergizes with HDAC inhibitors
PDAC tumors
  tumor size (tumor weights): significantly smaller
[5]
  pCREB and c-Myc signaling effects: the same signaling effects also occur
